Test results: US7396837B2, “Antitumoral analogs of lamellarins” (Pharma Mar, S.A.U., priority 2002, dated 2008)

Legend:
Type in all cases: cell-based
SK-MEL-28 = assay: SRB colorimetric cell growth inhibition assay, SK-MEL-28; details: Homo sapiens
Procedure, shortened: (§1)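 Continuous drug exposure of human cancer cells; SRB protein stain read-out; triplicate wells, mean ± SD; GI, TGI, LC computed.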

IGROV-ET = assay: SRB colorimetric cell growth inhibition assay, IGROV-ET (ET-743 resistant); details: Homo sapiens
Procedure, shortened: as §1

K-562 = assay: SRB colorimetric cell growth inhibition assay, K-562; details: Homo sapiens
Procedure, shortened: as §1

PANC-1 = assay: SRB colorimetric cell growth inhibition assay, PANC-1; details: Homo sapiens
Procedure, shortened: as §1

SK-BR-3 = assay: SRB colorimetric cell growth inhibition assay, SK-BR-3; details: Homo sapiens
Procedure, shortened: as §1

LoVo = assay: SRB colorimetric cell growth inhibition assay, LoVo; details: Homo sapiens, LoVo
Procedure, shortened: as §1

HeLa-APL = assay: SRB colorimetric cell growth inhibition assay, HeLa-APL (aplidine resistant); details: Homo sapiens
Procedure, shortened: as §1

HeLa = assay: SRB colorimetric cell growth inhibition assay, HeLa; details: Homo sapiens, HeLa
Procedure, shortened: as §1

LoVo-Dox = assay: SRB colorimetric cell growth inhibition assay, LoVo-Dox (MDR); details: Homo sapiens
Procedure, shortened: as §1

DU-145 = assay: SRB colorimetric cell growth inhibition assay, DU-145; details: Homo sapiens
Procedure, shortened: as §1

HT-29 = assay: SRB colorimetric cell growth inhibition assay, HT-29; details: Homo sapiens
Procedure, shortened: as §1

A-549 = assay: SRB colorimetric cell growth inhibition assay, A-549; details: Homo sapiens
Procedure, shortened: as §1

LNCaP = assay: SRB colorimetric cell growth inhibition assay, LNCaP; details: Homo sapiens, LNCaP
Procedure, shortened: as §1

IGROV = assay: SRB colorimetric cell growth inhibition assay, IGROV; details: Homo sapiens, IGROV
Procedure, shortened: as §1

`COc1cc(-c2c3n(c4c(=O)oc5cc(OC(=O)[C@@H](N)CO)c(OC)cc5c24)CCc2c-3cc(OC)c(OC)c2OC(=O)[C@@H](N)CO)ccc1OC(=O)[C@@H](N)CO` [Compound 59] showed a GI50 (SK-MEL-28; SK-MEL-28, MEL-28, GI=growth inhibition, read-out: GI50 MEL-28) of 1620 nM, an IC (TGI) (SK-MEL-28; SK-MEL-28, MEL-28, TGI=total growth inhibition (cytostatic effect), read-out: TGI MEL-28) of 3040 nM and a CC50 (SK-MEL-28; SK-MEL-28, read-out: LC50 MEL-28, MEL-28, LC=cell killing (cytotoxic effect)) of 5670 nM. The GI50 (IGROV-ET; IGROV-ET, GI=growth inhibition, read-out: GI50 IGROV-ET) was 632 nM, the IC (TGI) (IGROV-ET; IGROV-ET, TGI=total growth inhibition (cytostatic effect), read-out: TGI IGROV-ET) was 2040 nM and the CC50 (IGROV-ET; read-out: LC50 IGROV-ET, IGROV-ET, LC=cell killing (cytotoxic effect)) was 5980 nM. For the same compound, the GI50 (K-562; K562, K-562, GI=growth inhibition, read-out: GI50 K-562) was 1640 nM, the IC (TGI) (K-562; K562, K-562, TGI=total growth inhibition (cytostatic effect), read-out: TGI K-562) was 3450 nM and the CC50 (K-562; K562, read-out: LC50 K-562, K-562, LC=cell killing (cytotoxic effect)) was 7270 nM. It also gave a GI50 (PANC-1; PANC-1, PANC-1, GI=growth inhibition, read-out: GI50 PANC-1) of 1100 nM, an IC (TGI) (PANC-1; PANC-1, PANC-1, TGI=total growth inhibition (cytostatic effect), read-out: TGI PANC-1) of 3480 nM and a CC50 (PANC-1; PANC-1, read-out: LC50 PANC-1, PANC-1, LC=cell killing (cytotoxic effect)) of 8810 nM. For the same compound, the GI50 (SK-BR-3; SK-BR-3, SK-BR-3, GI=growth inhibition, read-out: GI50 SK-BR-3) was 372 nM, the IC (TGI) (SK-BR-3; SK-BR-3, SK-BR-3, TGI=total growth inhibition (cytostatic effect), read-out: TGI SK-BR-3) was 1150 nM and the CC50 (SK-BR-3; SK-BR-3, read-out: LC50 SK-BR-3, SK-BR-3, LC=cell killing (cytotoxic effect)) was 4110 nM. The CC50 (LoVo; read-out: LC50 LOVO, LOVO, LC=cell killing (cytotoxic effect)) was 5670 nM, the GI50 (LoVo; GI=growth inhibition, read-out: GI50 LOVO) was 1130 nM and the IC (TGI) (LoVo; TGI=total growth inhibition (cytostatic effect), read-out: TGI LOVO) was 2530 nM. It also gave a GI50 (HeLa-APL; read-out: GI50 HELA-APL) of 1880 nM, a CC50 (HeLa-APL; read-out: LC50 HELA-APL, HELA-APL, LC=cell killing (cytotoxic effect)) of 8120 nM and an IC (TGI) (HeLa-APL; read-out: TGI HELA-APL) of 3900 nM. The CC50 (HeLa; read-out: LC50 HELA, HELA, LC=cell killing (cytotoxic effect)) was 6440 nM, the IC (TGI) (HeLa; read-out: TGI HELA) was 2980 nM and the GI50 (HeLa; GI=growth inhibition, read-out: GI50 HELA) was 1370 nM. It also gave a GI50 (LoVo-Dox; LOVO-DOX, GI=growth inhibition, read-out: GI50 LOVO-DOX) of 528 nM, an IC (TGI) (LoVo-Dox; LOVO-DOX, TGI=total growth inhibition (cytostatic effect), read-out: TGI LOVO-DOX) of 1600 nM and a CC50 (LoVo-Dox; read-out: LC50 LOVO-DOX, LOVO-DOX, LC=cell killing (cytotoxic effect)) of 4560 nM. It also gave a GI50 (DU-145; DU-145, DU-145, GI=growth inhibition, read-out: GI50 DU-145) of 1390 nM, an IC (TGI) (DU-145; DU-145, DU-145, TGI=total growth inhibition (cytostatic effect), read-out: TGI DU-145) of 2600 nM and a CC50 (DU-145; DU-145, read-out: LC50 DU-145, DU-145, LC=cell killing (cytotoxic effect)) of 4860 nM. It also gave a GI50 (HT-29; HT-29, HT-29, GI=growth inhibition, read-out: GI50 HT-29) of 1970 nM, an IC (TGI) (HT-29; HT-29, HT-29, TGI=total growth inhibition (cytostatic effect), read-out: TGI HT-29) of 3700 nM and a CC50 (HT-29; HT-29, read-out: LC50 HT-29, HT-29, LC=cell killing (cytotoxic effect)) of 6980 nM. For the same compound, the GI50 (A-549; A549, A-549, GI=growth inhibition, read-out: GI50 A-549) was 1700 nM, the IC (TGI) (A-549; A549, A-549, TGI=total growth inhibition (cytostatic effect), read-out: TGI A-549) was 3290 nM and the CC50 (A-549; A549, read-out: LC50 A-549, A-549, LC=cell killing (cytotoxic effect)) was 6360 nM. The GI50 (LNCaP; LN-caP, GI=growth inhibition, read-out: GI50 LN-caP) was 1370 nM, the IC (TGI) (LNCaP; LN-caP, TGI=total growth inhibition (cytostatic effect), read-out: TGI LN-caP) was 2630 nM and the CC50 (LNCaP; read-out: LC50 LN-caP, LN-caP, LC=cell killing (cytotoxic effect)) was 5060 nM. For the same compound, the CC50 (IGROV; read-out: LC50 IGROV, IGROV, LC=cell killing (cytotoxic effect)) was 7670 nM, the GI50 (IGROV; GI=growth inhibition, read-out: GI50 IGROV) was 899 nM and the IC (TGI) (IGROV; TGI=total growth inhibition (cytostatic effect), read-out: TGI IGROV) was 2630 nM.
